Assay results from US7084158B2, “Substituted propargylamines” (Bayer Cropscience S.A., priority 2001, dated 2006).

Key:
Type in all cases: in vivo
Set-up in all cases: key: compounds were considered to be active when, at a concentration of 500 ppm or less, they had an activity on the harmful organisms of 50% or more
Carpocapsa pomonella = assay: Example D: dipped apples, codling moth L1 larvae mortality; settings: 500 ppm or less, after 14 days
Method: Apples were dipped into an aqueous solution of the formulated compound to be examined. The apples were then populated with 10 L1 larvae of the codling moth (Carpocapsa pomonella). After 14 days of storage at about 25° C., the effect of the compound on the larvae was determined (mortality). The compounds of the following examples were active: Nos. 14, 15, 17, 18, 70, 1007, 1008, 1009, 1036, 1038, 197.

Heliothis virescens = assay: Example B: tobacco budworm eggs on filter paper/insect diet, mortality; settings: 500 ppm or less; 24-hour-old eggs dipped, diet treated; after 6 days
[1] = test system: Diabrotica undecimpunctata; assay: Example C: corn rootworm eggs with maize corn, mortality; settings: 500 ppm or less; 4-5-day-old eggs; after 6 days
Spodoptera littoralis [2] = assay: Example E: cotton leaves sprayed, Egyptian cotton leafworm L2 larvae mortality; settings: 500 ppm or less, after 4 days
Method: Leaves of cotton plants were placed into a Petri dish, populated with 10 L2 larvae of the Egyptian cotton leafworm (Spodoptera littoralis) and sprayed with an aqueous solution of the formulated compound to be examined. After 4 days of storage at about 23° C., the effect of the compound on the larvae was determined (mortality). The compounds of the following examples were active: Nos. 18, 70, 1007, 1008, 1009, 1036 und 1038.

Nilaparvata lugens = assay: Example A: rice leaf dip, leafhopper larvae mortality; settings: 500 ppm or less; L3 larvae on dipped rice plants; after 6 days
Method: The leaves of 12 rice plants having a stem length of 8 cm were dipped for 5 seconds into an aqueous solution of the formulated compound to be examined. After the solution had run off, the rice plants treated in this manner were placed into a Petri dish and populated with about 20 larvae (L3 stage) of the rice leafhopper species Nilaparvata lugens. The Petri dish was closed and then stored in a climatized chamber (16 hours of light/day, 25° C., 40–60% relative atmospheric humidity). After 6 days of storage, the mortality among the leafhopper larvae was determined. The compounds of the following examples were active: Nos. 29, 32, 42, 43, 51, 70, 84, 1002, 1004, 1005, 1040, 180, 184, 193, 197, 203, 209, 1059, 264, 265, 1066.

Spodoptera littoralis [3] = assay: Example G: treated L2 larvae and insect diet, Egyptian cotton leafworm mortality; settings: 500 ppm or less, after 6 days
Method: A Petri dish whose bottom was covered with filter paper and which contained about 5 ml of insect diet is prepared. Five L2 larvae of the Egyptian cotton leafworm (Spodoptera littoralis) were counted into a small beaker. 200 μl of an aqueous solution of the formulated preparation to be examined were pipetted into the beaker. The treated larvae were then poured into the Petri dish, and a further 200 μl of the aqueous solution were distributed over the insect diet. The Petri dish was closed and then stored at about 25° C. in a climatized chamber. After 6 days of storage, the effect of the compound on the larvae was determined (mortality). The compounds of the following examples were active: 29, 70, 60, 159, 1005, 1040, 1042, 1044, 1045, 1046, 1047.

Aphis fabae = assay: Example F: field bean dip, black bean aphid mortality; settings: 500 ppm or less; plants and aphids dipped; after 3 and 6 days
Method: Germinated field bean seeds (Vicia faba) with radicles were transferred into brown glass bottles filled with tap water and subsequently populated with approximately 100 black bean aphids (Aphis fabae). Plants and aphids were then dipped for 5 seconds into an aqueous solution of the formulated compound to be examined. After the solution had run off, plants and animals were stored in a climatized chamber (16 hours of light/day, 25° C., 40–60% relative atmospheric humidity). After 3 and 6 days of storage, the effect of the compound on the aphids was determined (mortality). The compounds of the following examples were active: 30, 43, 228, 262, 291.

Meloidogyne incognita = assay: Example H: root gall nematode larvae immobilization (contact activity); settings: 500 ppm or less; 2nd stage larvae; 6 days permanent exposure
Method: In a glass vessel, an aqueous solution of the formulated compound to be examined was added to about 3000 freshly hatched active (mobile) larvae (2nd development stage) of the root gall nematode (Meloidogyne incognita) (final volume 20 ml). After 6 days of permanent exposure of the nematode larvae, the percentage of the individual larvae immobilized by the activity of the compound was determined in comparison to the untreated controls (contact activity). The compounds of the following examples were active: 39, 52, 159, 161, 162, 163, 164, 165, 1045, 1046, 1047, 179, 183, 187, 1048, 298, 206, 208, 227, 230, 1061, 237, 238, 245, 250, 255, 256, 260, 268, 269, 274, 275, 288, 290.

Spodoptera exigua = assay: Example S: treated L2 larvae and insect diet, sugar beet army worm mortality; settings: 500 ppm or less, after 6 days
Method: A Petri dish whose bottom was covered with filter paper and which contains about 5 ml of insect diet is prepared. Five L2 larvae of sugar beet army worm (Spodoptera exigua) were counted into a small beaker. 200 μl of an aqueous solution of the formulated compound to be examined were pipetted into the beaker. The treated larvae were then poured into the Petri dish and a further 200 μl of the aqueous solution were distributed over the insect diet. The Petri dish was closed and then stored at 25° C. in a climatized chamber. After 6 days of storage, the mortality among the larvae was determined. The following examples were active: 1036, 175, 184, 1051, 1054, 1055, 234, 1057, 1059, 1060, 1063, 243, 245, 251, 257, 259, 266, 1065, 1067, 290, 291.

[4] = test system: Diabrotica undecimpunctata; assay: Example AC: treated soil, southern corn rootworm eggs mortality; settings: 500 ppm or less, eggs added after 0d, 21d and 42d, after 2 weeks
Method: An aqueous solution of the formulated compound to be examined was mixed with soil. After 0d, 21d and 42d, eggs of the southern corn rootworm (Diabrotica undecimpunctata) were placed together with 2 pre-swollen maize corns into a dish, covered with the treated soil and moisted with 10 ml of water. Soil and eggs were placed in a greenhouse (23° C., 60% relative atmosphere humidity). After 2 weeks of storage, the effect of the compound on the eggs and any larvae hatched therefrom was determined (mortality). The following examples were active: 70, 60, 197, 204.

Aedes aegypti = assay: Example AG: microtiter plate, yellow fever mosquito larvicidal activity; settings: 500 ppm or less, after 3 days

CC1CCN(CC#Cc2ccc(Cl)c(C(F)(F)F)c2)CC1 [Example 14]
effect on the larvae (mortality) (Carpocapsa pomonella): active
effect on the eggs and hatched larvae (mortality) (Heliothis virescens): active

CC1CCN(CC#Cc2ccc(Cl)c(Cl)c2Cl)CC1 [Example 15]
effect on the larvae (mortality) (Carpocapsa pomonella): active
effect on the eggs and hatched larvae (mortality) (Heliothis virescens): active

COc1c(Cl)cc(C#CCN2CCC(C)CC2)cc1Cl [Example 17]
effect on the larvae (mortality) (Carpocapsa pomonella): active
effect on the eggs and hatched larvae (mortality) [1]: active
effect on the eggs and hatched larvae (mortality) (Heliothis virescens): active

CCC1CCCN(CC#Cc2ccc(Cl)c(C(F)(F)F)c2)C1 (stereo not drawn) [Example 18]
effect on the larvae (mortality) (Spodoptera littoralis [2]): active
effect on the larvae (mortality) (Carpocapsa pomonella): active
effect on the eggs and hatched larvae (mortality) [1]: active
effect on the eggs and hatched larvae (mortality) (Heliothis virescens): active

CC1CCN(CC#Cc2ccc(C(F)(F)F)cc2)CC1 [Example 29]
mortality among the leafhopper larvae (Nilaparvata lugens): active
effect on the eggs and hatched larvae (mortality) (Heliothis virescens): active
effect on the larvae (mortality) (Spodoptera littoralis [3]): active

CC1CCN(CC#Cc2cc(C(F)(F)F)ccc2Cl)CC1 [Example 30]
effect on the aphids (mortality) (Aphis fabae): active
effect on the eggs and hatched larvae (mortality) (Heliothis virescens): active

C[C@@H]1C[C@H](C)CN(CC#Cc2cc(C(F)(F)F)cc(C(F)(F)F)c2)C1 [Example 43]
effect on the eggs and hatched larvae (mortality) [1]: active
mortality among the leafhopper larvae (Nilaparvata lugens): active
effect on the aphids (mortality) (Aphis fabae): active

CSc1nc(C#CCN2CC(C)CC(C)C2)cc(C(F)(F)F)n1 (stereo not drawn) [Example 159]
percentage of larvae immobilized (contact activity) (Meloidogyne incognita): active
effect on the larvae (mortality) (Spodoptera littoralis [3]): active

Cc1cc(C)cc(-c2ccc(C#CCN3CCC(C)CC3)cc2)c1 [Example 175]
mortality among the larvae (Spodoptera exigua): active
effect on the eggs and hatched larvae (mortality) (Heliothis virescens): active

FC(F)(F)c1cc(C#CCN2CCC(C(F)(F)F)CC2)nc(C(F)(F)F)c1 [Example 204]
effect on the eggs and hatched larvae (mortality) [1]: active
effect on the eggs and hatched larvae (mortality) (Heliothis virescens): active
effect on the eggs and hatched larvae (mortality) [4]: active

CC1CCN(CC#Cc2ccc(-c3ccc(F)cc3)c(F)c2)CC1 [Example 228]
effect on the eggs and hatched larvae (mortality) [1]: active
effect on the aphids (mortality) (Aphis fabae): active

CC1CCN(CC#Cc2cc(C(F)(F)F)cc(Cl)n2)CC1 [Example 234]
effect on the eggs and hatched larvae (mortality) [1]: active
larvicidal activity (Aedes aegypti): active
mortality among the larvae (Spodoptera exigua): active
effect on the eggs and hatched larvae (mortality) (Heliothis virescens): active

CC1CCN(CC#Cc2ccc(-c3ccccc3Cl)s2)CC1 [Example 243]
mortality among the larvae (Spodoptera exigua): active

CC1CCN(CC#Cc2ccc(-c3ccc(Cl)cc3)s2)CC1 [Example 245]
percentage of larvae immobilized (contact activity) (Meloidogyne incognita): active
larvicidal activity (Aedes aegypti): active
mortality among the larvae (Spodoptera exigua): active
effect on the eggs and hatched larvae (mortality) (Heliothis virescens): active

CC1CCN(CC#Cc2ccc(C#N)c(C(F)(F)F)c2)CC1 [Example 290]
effect on the eggs and hatched larvae (mortality) [1]: active
percentage of larvae immobilized (contact activity) (Meloidogyne incognita): active
larvicidal activity (Aedes aegypti): active
mortality among the larvae (Spodoptera exigua): active
effect on the eggs and hatched larvae (mortality) (Heliothis virescens): active

CC1CCN(CC#Cc2ccc(C(F)(F)F)c(Cl)c2)CC1.O=C(O)/C=C/C(=O)O [Example 1008]
effect on the larvae (mortality) (Spodoptera littoralis [2]): active
effect on the larvae (mortality) (Carpocapsa pomonella): active

CC1CCN(CC#Cc2cc([N+](=O)[O-])cc(C(F)(F)F)c2)CC1.Cl [Example 1038]
effect on the larvae (mortality) (Spodoptera littoralis [2]): active
effect on the larvae (mortality) (Carpocapsa pomonella): active
effect on the eggs and hatched larvae (mortality) [1]: active
effect on the eggs and hatched larvae (mortality) (Heliothis virescens): active

CC1CCN(CC#Cc2ccc(C(F)(F)F)cc2)CC1.Cl [Example 1042]
effect on the eggs and hatched larvae (mortality) [1]: active
effect on the eggs and hatched larvae (mortality) (Heliothis virescens): active
effect on the larvae (mortality) (Spodoptera littoralis [3]): active

C[C@@H]1C[C@H](C)CN(CC#Cc2cc(C(F)(F)F)cc(C(F)(F)F)c2)C1.Cl [Example 1044]
effect on the eggs and hatched larvae (mortality) (Heliothis virescens): active
effect on the larvae (mortality) (Spodoptera littoralis [3]): active

CC1CCN(CC#Cc2cc(C(F)(F)F)cc(C(F)(F)F)n2)CC1.CCCCCCCCC(=O)O [Example 1045]
percentage of larvae immobilized (contact activity) (Meloidogyne incognita): active
effect on the eggs and hatched larvae (mortality) (Heliothis virescens): active
effect on the larvae (mortality) (Spodoptera littoralis [3]): active

CC1CCN(CC#Cc2cc(C(F)(F)F)cc(C(F)(F)F)n2)CC1.O=C(O)C(F)(F)F [Example 1046]
percentage of larvae immobilized (contact activity) (Meloidogyne incognita): active
effect on the eggs and hatched larvae (mortality) (Heliothis virescens): active
effect on the larvae (mortality) (Spodoptera littoralis [3]): active

CC1CCN(CC#Cc2cc(C(F)(F)F)cc(C(F)(F)F)n2)CC1.CCS(=O)(=O)O [Example 1060]
effect on the eggs and hatched larvae (mortality) [1]: active
larvicidal activity (Aedes aegypti): active
mortality among the larvae (Spodoptera exigua): active
effect on the eggs and hatched larvae (mortality) (Heliothis virescens): active
